By logP is commonly meant the decadic logarithm of the partition coefficient of the neutral form, usually between octanol and water. Read a low logP as a more hydrophilic compound.

Turning to `COc1ccc(-c2nc3cnccc3o2)c(OC)c1`, the logP was determined as 2.42.
In turn, `ClC(Cl)C(c1ccccc1)c1ccccc1` showed a logP of 4.51.
The figure for `NC=O` is -1.51; for `CNC(=O)Oc1ccc(C(C)C)c(C)c1` it is 3.11.
In the case of `C=C(F)F` it was 1.24; in that of `CCC1(C2=CCCCCC2)C(=O)NC(=O)NC1=O`, 2.03.
The figure for `O=S(=O)(O)c1ccc2ccccc2c1` is 0.63; for `NC(=O)c1ccc([N+](=O)[O-])cc1` it is 0.82; for `CCCCCOC(=O)c1cc(O)c(O)c(O)c1` it is 2.67.
`CCc1cccc(CC)c1N(COC)C(=O)CCl`: the logP was 3.52.
The figure for `Cc1ccc(O)c(C)c1` is 2.3; for `O=C(O)c1ccccc1C(=O)O` it is 0.73.
The figure for `CCOC(=O)[C@H](CCc1ccccc1)N[C@@H](C)C(=O)N1CCC[C@H]1C(=O)O` is 0.07; for `CC(=O)OC1(C(=O)CO)CCC2C3CCC4=CC(=O)CCC4(C)C3C(=O)CC21C` (centres undefined) it is 2.45; for `COc1cc2c(c(OC)c1OC)-c1ccc(O)c(=O)cc1[C@@H](NC(=O)C(F)(F)F)CC2` it is 1.82.
In the case of `c1cc2ccsc2cn1` it was 1.74; in that of `CN(C)C(=O)Nc1ccccc1`, 0.98; in that of `Cc1cccc(S(I)=C(N(C)C)N(C)C)c1` (centres undefined), -0.14.
For `c1ccc(N2CCCC2)cc1`, the logP is 3.56.
In the case of `CNCCNC` it was -0.62; in that of `CCCOC(=O)c1ccccc1C(=O)OCCC`, 3.27.
`CCNc1nc(Cl)nc(N(CC)CC)n1` had a logP of 3.34.
In the case of `O=C1CN=C(c2ccccc2C(F)(F)F)c2ccccc2N1` it was 2.47; in that of `FC(F)(F)c1ccc(C(F)(F)F)cc1`, 3.83.
The figure for `CCCCCC(=O)Nc1ccccc1` is 3.28; for `FC(F)F` it is 0.64; for `CN(C)c1cccc2cccnc12` it is 2.73.
For the compound `Nc1ccc(S(=O)(=O)Nc2cnc3ccccc3n2)cc1`, the logP came to 1.68.
Consider `NC(=O)CCCCc1ccccn1`, for which the logP was 0.38.
The figure for `Cc1nn(C)c(OCC(=O)c2ccccc2)c1C(=O)c1ccc(Cl)cc1Cl` is 3.69.
The figure for `NC(=O)N/N=C/c1ccc([N+](=O)[O-])o1` is 0.23; for `O=c1[nH]c2ccccc2n1C1CCN(CCCC(c2ccc(F)cc2)c2ccc(F)cc2)CC1` it is 6.3; for `c1ccc(-c2ccc3ccccc3n2)cc1` it is 3.9.
The figure for `O=[N+]([O-])c1ccc(C=Cc2nccs2)o1` is 1.97; for `OC(c1ccccc1)(C(F)(F)F)C(F)(F)F` it is 3.41.
Take `Nc1ccc2c(n1)[nH]c1ccccc12`: the logP came out at 2.6.
The figure for `C=CCN1CCc2nc(N)sc2CC1` is 1.48; for `O=C(O)CNC(=O)c1ccccc1O` it is 0.95.
For the compound `O=c1[nH]cc(C(F)(F)F)c(=O)[nH]1`, the logP was 0.04.
In the case of `O=c1[nH]c(=O)n([C@H]2C[C@H](O)[C@@H](CO)O2)cc1C(F)(F)F` it was -0.46; in that of `C=CCC1(C(C)CC)C(=O)NC(=O)NC1=O` (centres undefined), 1.47.
The figure for `C=COCC` is 1.04; for `COc1ccc(C(N)=O)cc1` it is 0.86; for `O=CNc1cccc(Cl)c1` it is 1.9.
The figure for `O=C(c1ccccc1)c1ccccc1O` is 3.52; for `OCC=Cc1ccccc1` it is 1.95.
For the compound `Clc1cccnc1`, the logP worked out at 1.33.
In the case of `CN(C)CCNC(=O)c1ccccc1` it was 1.1; in that of `CC(=O)c1ccc(S(I)=C(N(C)C)N(C)C)cc1` (centres undefined), -0.85.
In the case of `NNC(=O)c1ccncc1` it was -0.7; in that of `NC(=O)N(CCCl)N=O`, 0.57.
In the case of `CN(C(N)=S)c1ccccc1` it was 0.85; in that of `NC(=O)CCc1ccncc1`, -0.25; in that of `Cc1nc([N+](=O)[O-])cn1CCO`, -0.59.
For `CCn1cnc([N+](=O)[O-])n1`, the logP was -0.19.
In the case of `CC(C)C(Cl)C(=O)NC(N)=O` (centres undefined) it was 1; in that of `CC1CN(N=O)CC(C)O1` (centres undefined), 0.32.
The figure for `O=[N+]([O-])c1ccc(Cl)c(Cl)c1Cl` is 3.61.
In the case of `CCn1nnc(Oc2ccc(NC(=O)N(C)C)cc2Cl)n1` it was 1.7.
Consider `COc1cc(C(O)CN)ccc1O` (centres undefined), for which the logP is -1.05.
The figure for `Nc1cccc(F)c1` is 1.3.
In the case of `CC(C)c1ccc(C(N)=O)cc1` it was 2.14.
As for `O=C1CNC(=O)N1`, the logP is -1.69.
The figure for `CC(C)(O)C(Cl)(Cl)Cl` is 2.03.
The figure for `CCC(C)c1cccc(C(C)C)c1O` (centres undefined) is 3.85; for `O=C(O)c1cc(Br)ccc1O` it is 3.23; for `O=CNc1cccc2cccnc12` it is 1.8.
In the case of `C1COCO1` it was -0.37; in that of `N#CSCc1ccccc1`, 1.99; in that of `CCS(=O)(=O)CC`, -0.59.
For the compound `CCOC(=O)c1ccoc1`, the logP is 1.78.
For `Fc1cc(F)c(F)c(F)c1F`, the logP came to 2.53.
The compound `c1ccc(Cn2cnnc2)cc1` showed a lipophilicity (logP) of 0.74.
The figure for `O=C(CCl)NC(CO)C(O)c1ccc([N+](=O)[O-])cc1` (centres undefined) is 0.59; for `O=[N+]([O-])c1ccccc1Nc1ccccc1` it is 3.66; for `CNc1ccccc1` it is 1.66.
The figure for `C[C@]12CCC(=O)C=C1CC[C@@H]1[C@@H]2C(=O)C[C@@]2(C)[C@H]1CC[C@]2(O)C(=O)CO` is 1.47.
The figure for `CNC(=O)OCc1c2c(n3c1C(OC(C)=O)CC3)C(=O)C=C(OC)C2=O` (centres undefined) is 1.19; for `CCCCSC1=CC(=O)c2ccccc2C1=O` it is 3.29.
Consider `CS(C)(=O)=O`, for which the logP was -1.41.
`CCCC(=NOCC)C1C(=O)CC2(CC(C)CC(C)C2)OC1=O` (centres undefined) yielded a logP of 4.48.
Compound `O=C1OC2(CCCC2)c2ccccc21` registered a logP of 2.56.
In the case of `CN(C(N)=O)c1ccccc1` it was 0.42; in that of `CCN(N=O)C(=O)N(C)C`, 0.71; in that of `CCCCCOc1cc(N)ccc1C(=O)O`, 2.38.
In the case of `CS(=O)(=O)c1ccc(Cl)cc1` it was 1.06.
The figure for `Cc1cc(NN)ncn1` is 0.62; for `O=C(OCCc1ccccc1)c1ccccc1` it is 4.01.
The compound `CN(C)N=Nc1ccccc1C(N)=O` had a lipophilicity (logP) of 1.73.
With `NC1C2CCC1c1ccccc12` (centres undefined), the logP was 2.13.
The figure for `O=C(O)c1cc([N+](=O)[O-])c(Cl)c([N+](=O)[O-])c1` is 2.5; for `COc1ccccc1NCCO` it is 1.5; for `Cc1cccc(CO)c1` it is 1.6.
The figure for `C=C1C(=O)OC2CC(C)C3CC(=O)C(CC12)C1(C3)C(=O)OC2CC(C)C3C=CC(=O)C3C(C)(O)C21` (centres undefined) is 1.66; for `CN(C)C(N(C)C)=S(I)c1ccccc1F` (centres undefined) it is -0.55; for `O=C(O)CCn1nnc2ccccc21` it is -0.63.
In the case of `CC1(C)CCC(C)(C)O1` it was 2.06.
In turn, `COc1ccccc1OC(=O)c1ccc(N)cc1O` yielded a logP of 2.88.
In the case of `Clc1ccc2nccnc2c1` it was 2.1.
In the case of `OC(CNCC(O)COc1ccccc1)COc1ccccc1` (centres undefined) it was 2.52; in that of `C=CCOc1ccccc1C(=C)n1ccnc1`, 2.79.
With `CCN(CC)CCSC(=NO)c1nc(-c2cccc3ccccc23)no1`, the logP was 3.87.
In the case of `NC(=O)c1cnc2ccccc2n1` it was 0.98; in that of `O=C1C(Cl)=C(Nc2ccccc2)C(=O)c2ccccc21`, 4.22; in that of `Nc1ncnc2[nH]cnc12`, -0.09.
The figure for `CCCCOCCOCCSC#N` is 1.68; for `c1ccc2[nH]nnc2c1` it is 1.44; for `CC1(C)CCCC(C)(C)N1` it is 2.15.
The figure for `CN(C)S(=O)(=O)c1ccc(N)cc1` is 0.67.
Compound `CC(O)CCC(=O)c1ccoc1` (centres undefined) displayed a logP of 0.84.
In turn, `O=C(O)C1c2ccccc2Oc2ccccc21` came in with a logP of 2.23.
In turn, `O=C(Nc1ccccc1)NC1CCCCC1` came in with a logP of 2.77.
The figure for `CO` is -0.77; for `CCCC1CCCc2ncc(C(=O)OC)c(=O)n21` (centres undefined) it is 1.14.
The figure for `COc1cccc(OCC(=O)NNC(C)C)c1` is 1.33; for `CC(=O)Nc1ncnc2c1ncn2C` it is -0.41; for `CCOc1ccc(NC(=O)OC2CCCC2)cc1OCC` it is 3.33.
The figure for `Oc1ccc(Cl)c(O)c1` is 1.8; for `O=C(O)c1ccccc1Oc1ccccc1` it is 3.11; for `CC(=O)NN` it is -1.58.
The compound `O=CNc1ccc2[nH]ccc2c1` had a logP of 1.07.
Compound `O=C(O)C(CO)c1ccccc1` (centres undefined) displayed a logP of 0.77.
As for `CC(=O)OCC(=O)[C@@]1(O)[C@H](OC(C)=O)C[C@H]2[C@@H]3CCC4=CC(=O)C=C[C@]4(C)[C@@]3(F)[C@@H](O)C[C@@]21C`, the logP is 1.92.
In turn, `Cn1cc(C(=O)O)c2ccccc21` registered a lipophilicity (logP) of 2.
In the case of `NC(=O)NO` it was -1.8.
The figure for `O=C(O)c1cccc([N+](=O)[O-])c1C(=O)O` is 0.75; for `CC(=O)CF` it is -0.39.
In turn, `COC(OC)OC` yielded a logP of 0.25.
With `CCOC(=O)c1ccc([N+](=O)[O-])cc1`, the logP is 2.33.
Take `O=C(O)CCCCCC(=O)O`: the logP was found to be 0.61.
The figure for `O=C(CN1CCCCC1)Nc1cccc([N+](=O)[O-])c1` is 2.59; for `Cc1cccc2sc3nncn3c12` it is 1.7.
The figure for `Cc1ccc(NC(=O)c2ccccc2)c(O)c1` is 3.08; for `NC(Cc1ccc(O)c(O)c1)C(=O)OCc1cccc(C(F)(F)F)c1` (centres undefined) it is 2.29.
In the case of `OCCc1ccccn1` it was 0.12; in that of `Clc1cccnc1Cl`, 2.11; in that of `CC(=O)Nc1ccc2cccccc1-2`, 2.48.
For `CCC(C)N(C(=O)SCc1ccccc1)C(C)CC` (centres undefined), the logP was determined as 4.4.
In the case of `Nc1cc(Cl)cc(Cl)c1` it was 2.9.

(Values after the OPERA property sets (Mansouri et al. 2018).)
